From patent publication US20240226066A1, “CARDIOPROTECTION BY AUTOPHAGY INDUCTION AND METABOLIC REPROGRAMMING” (UNIVERSITE PARIS-SACLAY, priority 2021, published 2024)
Like-named read-outs stand apart in the source and are kept apart here.

Tests used:
hERG potassium channel = target: T1, hERG potassium channel (Homo sapiens, UniProt Q12809); test: hERG channel binding assay ([3H]dofetilide displacement); details: for inhibition at 10 µM: human, probe [3H]dofetilide
T1 construct: Eurofins
Procedure: The evaluation of the binding of the compounds to the human hERG potassium channel was carried out as described previously (Eurofins).
Since the blocking of the human potassium channel hERG channel may be responsible for cardiac fibrillation leading to cardiac arrest and death of the patient, the binding of the 3 molecules SG6163F, VP331 and LOPA87 to this receptor was evaluated.

RNVCs [1] = test: Mitochondrial ROS production with MitoSOX fluorescent probe; assay type: cell-based, rat; details: 1 μM, 6 h
Procedure: FIG. 12: The RNVCs were treated with 0.1% DMSO, 3 μM rapamycin, 1 μM digitoxigenin, 1 μM digoxin, 1 μM minaprin, 1 μM VP331, 1 μM LOPA87, 10 μM SG6163F for 6 h, then the ROS production was stained with the MitoSOX fluorescent probe.
The RNVCs were treated with 0.01% DMSO, 3 μM rapamycin, […], 1 μM digoxin, 1 μM minaprine, 1 μM VP331, 1 μM LOPA87, 10 μM SG6163F in a serum-free cell culture medium for 6 hours. The contents (50 μg) of a MitoSOX™ mitochondrial superoxide indicator vial (ThermoFisher, M36008) were dissolved in 13 μl dimethyl sulfoxide (DMSO) to prepare a 5 mM MitoSOX™ reagent stock solution. Next, the 5 mM MitoSOX™ reagent stock solution in PBS was diluted to prepare a 5 μM working solution of MitoSOX™ reagent. After treatment, the cells were rinsed twice with hot PBS and then incubated with a MitoSOX reagent working solution for 10 minutes at 37° C. The cells were gently rinsed three times with hot PBS. Red fluorescence was detected with a Leica confocal microscope. Nuclear fluorescence was suppressed and mitochondrial fluorescence intensity was measured using ImageJ software.
ROSs are produced or accumulated as a by-product of mitochondrial activity metabolism. Thus, the ROSs may be a consequence of mitochondrial function or may reflect a defect in the mitochondrial antioxidant system.

[2] = test system: primary rat neonatal ventricular cardiomyocytes (RNVCs); test: Protection of RNVCs against camptothecin-induced apoptosis (LDH release, propidium iodide); assay type: cell-based; details: camptothecin 10 μM
Procedure: Neonatal rat cardiomyocytes were isolated as described previously (Wang et al., Cell Death Dis, 2016, 7:e2198).
(§1) A colorimetric assay was used to measure lactate dehydrogenase (LDH), a cytosolic enzyme which is released during permeabilization of the plasma membrane (Promega G1780). The assay was performed using cell culture supernatants obtained from H9C2 or RNVC (rat neonatal ventricular myocyte) cells and lysis buffer (LB) was used as a positive control for total cell lysis. The LDH release was measured by absorbance reading at 490 nm (Infinite spectrofluorimeter, Tecan).
Propidium iodide, a non-permeable fluorescent DNA marker, was used to measure membrane integrity. Propidium iodide at 10 μM was added to the culture medium and a fluorescence reading was performed (for […]: 530 nm; em: 620 nm), the LB was used as a positive control for total cell lysis.
(§2) The effect of the compounds was then evaluated on primary rat neonatal ventricular cardiomyocytes (RNVCs) using the LDH test and propidium iodide staining. […] The absence of proliferative effects of the compounds was also evaluated on the A549 lung cancer cell line for 48 h (FIG. 2C).

[3] = test system: A549 lung cancer cell line; test: Influence of hits on growth of A549 cancer cells (total LDH after lysis); assay type: cell-based; details: 48 h
Procedure: The cells were cultured for 6 h in the presence or absence of the hits, and then for 42 h. Finally, the cells were lysed with lysis buffer and the amount of LDH was measured to evaluate the total cell growth.
as §1, §2

RNVCs [4] = test: Mitochondrial network and cell volume by confocal microscopy (Mitotracker, calcein-AM, IMARIS); assay type: cell-based, rat; details: 1 and 10 μM, 6 h
Procedure: FIG. 6. Effects on mitochondrial dynamics by fluorescence microscopy The RNVCs were treated with 1 μM hits (FIG. 6A) and 10 μM hits (FIG. 6B) for 6 h and the mitochondrial network was stained with 200 nM of Mitotracker. The mitochondrial network and individual mitochondria were then analyzed using a Leica confocal microscope and IMARIS software. Data are presented as mean±SEM with single-factor ANOVA, and multiple Sidak comparisons. *, p<0.05, **, p<0.01, ***, p<0.001 with respect to DMSO.
FIG. 11: following the treatment of the RNVCs with the compounds as indicated, the cell volume was stained with 4 μM of calcein-AM. The cell volume was then analyzed using the IMARIS software.
Confocal microscopy. On day 0, 4×10^5 neonatal cardiomyocytes were plated overnight on laminin-coated 35 mm culture dishes (10 μg/ml). On day 1, the cells were treated with various compounds at 1 or 10 μM for 6 hours. The cells were incubated with Mitotracker Red 580 at 200 nM for 20 minutes at 37° C., then 4 μM of calcein (Calcein AM, Life Technologies, St Aubin, France) for 10 minutes at 37° C. The images were acquired with a Leica confocal microscope (SP5) (Mannheim, Germany). The mitochondrial network and the 3D model of cell volume were reconstructed using the IMARIS software (Bitplane Company, Zurich, Switzerland); therefore the cell volume, mitochondrial number and volume were analyzed.
Due to the importance of mitochondria and reactive oxygen species (ROS) levels in the fate of cardiomyocyte cells, the hypothesis that the compounds could impact the mitochondrial network was explored. Following treatment of the RNVCs with the compounds tested, the mitochondrial network was stained with 200 nM of Mitotracker and the cell volume with 4 μM of calcein-AM. Thus, the mitochondrial network and the individual mitochondria were then analyzed using the IMARIS software.

[5] = test system: AMP-activated protein kinase (AMPK); test: Western blot of AMPK phosphorylation in RNVCs; assay type: cell-based, rat
Procedure: FIG. 8D: AMPK alpha2 and phospho-AMPK protein levels in RNVCs. Data are presented as mean±SEM with single-factor ANOVA, and multiple Sidak comparisons. *, p<0.05, **, p<0.01, ***, p<0.001 with respect to DMSO.
The H9C2 cells and RNVCs were detached in LB containing: 50 mM Tris, 150 mM NaCl, 1 mM EDTA, 0.5% deoxycholate, 1% Triton X 100, 0.1% SDS (pH 8.0). The cells were collected and placed on ice for 30 minutes. The cells were then centrifuged at 2000 g for 20 minutes at for 4° C. The supernatant was transferred to a new tube and stored on ice. The protein concentration was determined by BCA assay. The protein samples were diluted with sample buffer (2× Laemmli, Sigma), mixed, and heated for 5 minutes at 95° C. The samples were then loaded into a precast gel with a gradient of 4 to 20% and migrated for 15 minutes at 300 V. After migration, the membrane and the gel were placed on the base of a Trans Blot Turbo cassette (Bio Rad) and the proteins were transferred for 3 minutes at 2.5 V. After transfer, the membrane was blocked with 5% milk in PBS-Tween and incubated with a primary antibody diluted in PBS-Tween containing 5% w/v milk at 4° C. with gentle stirring, overnight. […] The images were recorded with a gel imaging system (Bio Rad). […]
Next, the energy metabolism was analyzed in real time using the Seahorse technology in H9C2 cells.

T1 sequence (Q12809 whole entry): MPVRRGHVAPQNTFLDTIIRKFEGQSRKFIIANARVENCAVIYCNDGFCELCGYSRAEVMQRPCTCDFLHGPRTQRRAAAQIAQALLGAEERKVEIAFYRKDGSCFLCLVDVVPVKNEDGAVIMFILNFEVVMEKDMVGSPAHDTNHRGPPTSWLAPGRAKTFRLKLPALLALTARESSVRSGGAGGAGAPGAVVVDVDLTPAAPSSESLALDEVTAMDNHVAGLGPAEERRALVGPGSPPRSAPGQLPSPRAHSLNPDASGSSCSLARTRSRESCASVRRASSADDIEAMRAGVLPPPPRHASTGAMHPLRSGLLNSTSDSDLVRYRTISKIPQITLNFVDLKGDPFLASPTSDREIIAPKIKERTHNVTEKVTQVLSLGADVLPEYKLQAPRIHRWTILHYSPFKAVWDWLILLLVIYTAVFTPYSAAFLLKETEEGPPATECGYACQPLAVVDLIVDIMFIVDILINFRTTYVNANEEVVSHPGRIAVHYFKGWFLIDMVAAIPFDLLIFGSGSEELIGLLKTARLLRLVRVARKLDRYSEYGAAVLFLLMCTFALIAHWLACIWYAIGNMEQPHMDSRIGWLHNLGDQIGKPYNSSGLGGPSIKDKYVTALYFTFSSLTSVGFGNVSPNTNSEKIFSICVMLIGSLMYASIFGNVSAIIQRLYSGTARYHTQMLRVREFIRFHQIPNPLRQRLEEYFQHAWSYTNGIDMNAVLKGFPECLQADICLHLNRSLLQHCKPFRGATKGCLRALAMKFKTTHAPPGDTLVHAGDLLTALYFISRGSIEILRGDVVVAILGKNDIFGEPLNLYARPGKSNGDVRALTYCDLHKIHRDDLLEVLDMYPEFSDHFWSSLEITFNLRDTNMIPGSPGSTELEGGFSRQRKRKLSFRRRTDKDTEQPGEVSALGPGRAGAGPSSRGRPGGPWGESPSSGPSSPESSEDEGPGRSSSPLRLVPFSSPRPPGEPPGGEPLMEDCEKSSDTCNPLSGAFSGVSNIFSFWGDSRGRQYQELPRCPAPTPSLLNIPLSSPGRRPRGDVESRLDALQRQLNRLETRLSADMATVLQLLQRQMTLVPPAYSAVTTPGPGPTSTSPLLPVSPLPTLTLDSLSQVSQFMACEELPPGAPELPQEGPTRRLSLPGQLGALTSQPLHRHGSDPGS

## CN(C)c1ccc(-c2cc(=O)[nH]c(-c3ccccc3)n2)cc1 [LOPA87]
hERG potassium channel; inhibition of tritiated dofetilide binding, only values >50% considered effective, read-out: % inhibit 1st assay
  inhibition at 10 µM: 14.6%
hERG potassium channel; inhibition of tritiated dofetilide binding, only values >50% considered effective, read-out: % inhibit 2nd assay
  inhibition at 10 µM: 5.3%
hERG potassium channel; mean of two independent measurements, read-out: % inhibit Mean
  inhibition at 10 µM: 10%
hERG potassium channel; inhibition of specific binding of [3H]dofetilide in vitro
  binding to the hERG channel: negligible
RNVCs [1]
  local level of mitochondrial superoxide anion: induced an elevation
[2]
  inhibition of apoptosis of RNVCs: did not protect
[3]
  effect on A549 cell growth: no proliferative effect
RNVCs [4]
  effect on the mitochondrial network: no effect
  number of mitochondria: no effect
[5]
  AMPK phosphorylation compared with the DMSO control: 1.5 fold
